{"source": "paper PMC10112881", "about": "(Cell reports, 2023)", "key": {"[1]": {"system": "HTR induced by DOI", "test": "Tolerance to DOI-induced HTR after repeated treatment", "details": "10 mg/kg/day IP 7 days, DOI 1 mg/kg challenge 24 h later"}, "[2]": {"system": "head-twitch response", "details": "cited from earlier work"}, "[3]": {"system": "HTR induced by DOI", "test": "Blockade of DOI-induced head-twitch response", "details": "0.025 or 0.25 mg/kg, DOI 1 mg/kg"}, "[4]": {"target": "5-HT4 (Homo sapiens, UniProt Q13639)", "sequence (Q13639 whole entry)": "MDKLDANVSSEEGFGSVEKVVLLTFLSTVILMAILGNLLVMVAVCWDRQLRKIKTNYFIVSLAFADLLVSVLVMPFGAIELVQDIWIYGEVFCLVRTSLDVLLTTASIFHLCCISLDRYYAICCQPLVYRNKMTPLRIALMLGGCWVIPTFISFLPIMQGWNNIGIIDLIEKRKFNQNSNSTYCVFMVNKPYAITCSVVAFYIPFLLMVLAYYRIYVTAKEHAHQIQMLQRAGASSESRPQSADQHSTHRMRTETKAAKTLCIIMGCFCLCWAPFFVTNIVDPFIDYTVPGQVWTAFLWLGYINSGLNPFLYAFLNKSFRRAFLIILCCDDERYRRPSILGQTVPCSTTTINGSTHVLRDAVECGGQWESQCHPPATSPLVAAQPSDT", "test": "G protein dissociation BRET assay", "assay_type": "cell-based"}, "[5]": {"target": "D3 (Homo sapiens, UniProt P35462)", "sequence (P35462 whole entry)": "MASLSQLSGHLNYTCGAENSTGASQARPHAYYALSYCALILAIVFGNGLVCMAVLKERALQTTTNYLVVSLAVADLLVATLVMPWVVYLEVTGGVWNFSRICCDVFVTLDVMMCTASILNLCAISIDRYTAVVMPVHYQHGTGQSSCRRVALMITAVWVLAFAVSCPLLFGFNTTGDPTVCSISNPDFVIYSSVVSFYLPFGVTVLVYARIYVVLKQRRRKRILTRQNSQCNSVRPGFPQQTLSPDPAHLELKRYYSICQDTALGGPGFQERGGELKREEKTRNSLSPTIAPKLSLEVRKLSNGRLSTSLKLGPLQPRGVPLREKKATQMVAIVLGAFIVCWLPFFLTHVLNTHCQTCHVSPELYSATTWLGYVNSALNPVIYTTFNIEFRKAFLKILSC", "test": "G protein dissociation BRET assay", "assay_type": "cell-based", "details": "relative to dopamine"}, "[6]": {"system": "D1/5 subtypes", "test": "G protein dissociation BRET assay", "assay_type": "cell-based, human"}, "[7]": {"system": "33 human aminergic GPCRs", "test": "Pan-aminergic GPCR functional screen", "assay_type": "cell-based", "details": "of 33 aminergic GPCR targets tested"}, "[8]": {"system": "rest of the histamine and muscarinic GPCRs", "test": "G protein dissociation BRET assay", "assay_type": "cell-based, human"}, "[9]": {"system": "head-twitch response", "test": "Head-twitch response"}, "[10]": {"system": "rat cortical neurons", "test": "Dendritogenesis", "assay_type": "cell-based"}, "[11]": {"test": "Open field test", "assay_type": "in vivo, C57BL/6J mice", "details": "0.125 mg/kg alone or with 2-Br-LSD 1 mg/kg"}, "[12]": {"test": "Forced swim test", "assay_type": "in vivo, C57BL/6J mice", "details": "0.125 mg/kg before 2-Br-LSD 1 mg/kg, females and males"}, "[13]": {"system": "rat cortical neurons", "test": "Spinogenesis in cultured cortical neurons", "assay_type": "cell-based", "details": "10 μM, 3 h at DIV18, read 24 h after onset"}}, "note": "Where a name gives a salt, the structure may show the parent alone.", "data": [{"smiles": "COc1cc(CC(C)N)c(OC)cc1I.Cl", "note": "(racemic) [DOI, (±)-2,5-Dimethoxy-4-iodoamphetamine hydrochloride, reference compound]", "values": [{"measurement": "tolerance on HTR after repeated treatment", "setting": "[1]", "result": "significant degree of tachyphylaxis"}]}, {"smiles": "CCCN1CCC[C@@H]2Cc3n[nH]cc3C[C@H]21", "note": "[(–)-quinpirole, (–)-quinpirole hydrochloride, reference compound]", "values": [{"measurement": "effect on the HTR induced by LSD", "setting": "[2]", "result": "does not alter the HTR"}, {"measurement": "reduction of the response to DOI", "setting": "[3]", "result": "~ 20%"}]}, {"smiles": "CCN(CC)C(=O)[C@@H]1C=C2c3cccc4[nH]cc(c34)C[C@H]2N(C)C1.CCN(CC)C(=O)[C@@H]1C=C2c3cccc4[nH]cc(c34)C[C@H]2N(C)C1.O=C(O)C(O)C(O)C(=O)O", "note": "[LSD, (+)-lysergic acid diethylamide (2:1) (+)-tartrate, reference compound]", "values": [{"measurement": "activity at 5-HT4", "setting": "[4]", "result": "lack potent agonist or antagonist activity"}, {"measurement": "EMAX", "setting": "[5]", "result": 75, "unit": "%"}, {"measurement": "agonism at D1/5 subtypes", "setting": "[6]", "result": "demonstrates agonist activity"}, {"measurement": "number of aminergic GPCR targets with agonist activity", "setting": "[7]", "result": 20}, {"measurement": "agonism or antagonism at the rest of the histamine and muscarinic GPCRs", "setting": "[8]", "result": "neither 2-Br-LSD nor LSD possessed weak agonism or antagonism"}, {"measurement": "induction of the HTR", "setting": "[9]; 0.1 mg/kg IP, male C57BL/6J mice, 60 min", "result": "significant increase in HTR counts"}]}, {"smiles": "COc1cccc([C@H](O)C2CCN(CCc3ccc(F)cc3)CC2)c1OC", "note": "[Vol, volinanserin, reference compound]", "values": [{"measurement": "dendritic arbor complexity, administered alone", "setting": "[10]; 0.1–1 μM", "result": "did not change any parameter linked to dendritic arbor complexity"}, {"measurement": "effect of pre-treatment on 2-Br-LSD-induced total dendrite length", "setting": "[10]; before 2-Br-LSD 1 μM", "result": "blocked the increase in total dendrite length"}, {"measurement": "locomotion in the OF", "setting": "[11]", "result": "Neither Vol nor a combination of Vol and 2-Br-LSD affected locomotion"}, {"measurement": "effect of pre-treatment on 2-Br-LSD decrease in immobility", "setting": "[12]", "result": "blocked the decrease in immobility"}]}, {"smiles": "COc1ccccc1N1CCN(CCN(C(=O)C2CCCCC2)c2ccccn2)CC1.O=C(O)/C=C\\C(=O)O", "note": "[WAY-100,635, N-[2-[4-(2-Methoxyphenyl)-1-piperazinyl]ethyl]-N-(2-pyridinyl)cyclohexanecarboxamide maleate, reference compound]", "values": [{"measurement": "effect of pre-treatment on the response to 2-Br-LSD in the HTR assay", "setting": "[9]; 1 mg/kg WAY-100,635, then 2-Br-LSD 3 mg/kg", "result": "had no effect"}]}, {"smiles": "CNC1(c2ccccc2Cl)CCCCC1=O", "note": "(stereo not drawn) [ketamine, Ketamine hydrochloride, reference compound]", "values": [{"measurement": "spine density", "setting": "[13]", "result": "spine density increased"}]}]}
